Results on 1 compound are retold here after patent US20210363254A1, “PHARMACEUTICAL COMBINATIONS” (Novartis AG, priority 2018, published 2021).

The assay relates to immune cells in Colon 26 tumors. In words: Immune profiling of Colon 26 tumors and draining lymph nodes by flow cytometry (7628 and 8063 Colon 26-XPD). Type of assay: in vivo, mouse. The settings on record: 40 mg/kg every 3h for 3 times on days 0 and 7. The protocol: HDM201 modulated profiles of immune cells in Colon 26 tumors. Increases in % CD11c^+/CD45^+ myeloid cells (A), % CD8^+/CD45^+ T cells (B), PDL1 MFI in CD45^− cells (C), and % PD1^+/CD45^+ lymphocytes (d). Colon 26 cells were implanted into the right flank of Balb/c mice. When tumors reached ˜60 mm^3, mice were randomized and treated with HDM201 at 40 mg/kg every 3h for 3 times on days 0 and 7. Mice were euthanized, and tumors were collected and processed for FACS analysis on Days 5 and 12 post first dose.
HDM201 modulated profiles of immune cells in Colon 26 tumors. Increases in % CD103^+CD11c^+ DCs (A), % Tbet*EOMES-CD8+/CD45^+ T cells (B), and CD8/Treg ratio (C). Colon 26 Cells were implanted into right flank of Balb/c mice. When tumors reached ˜100 mm^3, mice were randomized and treated with HDM201 at 40 mg/kg every 3h for 3 times on days 0 and 7. Mice were euthanized; tumors and draining lymph nodes were collected and processed for FACS analysis on Days 5 and 12 post first dose.
Colon 26 cells were harvested at 80-95% confluence, washed, and re-suspended in cold PBS at a concentration of 2×10^6 cells/ml. Finally, 0.2×10^6 cells in a total volume of 100 μL were implanted subcutaneously (sc) into the upper right flank of naive Balb/c mice.
The tumor infiltrating lymphocytes (TILs) from tumors were analyzed by flow cytometry for both studies ([…] Colon 26-XPD and 8063 Colon 26-XPD). Lymph node lymphocytes were analyzed for 8063 Colon 26-XPD. The samples were plated into two separate 96 well plates, one for T cell staining (Table Ex3.5) and one for myeloid cell staining (Table Ex3.6).
For Study 7628 Colon26-XPD, tumors and spleens were collected from mice on Day 5 and Day 12 post initiation of treatment. Single cell suspensions were generated according to RDS-2016-00163. Briefly, the tissues were minced with scissors followed by mechanical homogenization in dissociation buffer containing RPMI 1640 (Gibco, Life Technologies) with Liberase™ research grade collagenase (Roche) and DNase 1 recombinase (Roche) using the GentleMAX (Miltenyi). Following a 15 minute incubation at 37° C. in a water bath, the homogenates were quenched with 10% FBS and filtered on a […] cell strainer (Falcon). At the end of this process, the single cell suspension of cells was obtained and 2 million cells were plated into 96-well plates for staining with either a T cell or myeloid cell panel of antibodies.
For Study 8063 Colon 26-XPD, tumors and lymph nodes were collected and then processed both mechanically and enzymatically into a single cell suspension according to RDS-2017-00141. The digestion process involves 4-5 consecutive digestion cycles with new digestion buffer containing DNase I (Roche), Collagenase P (Roche), and dispase (Gibco) in each cycle. At the end of this process, cell suspension was filtered on a […] cell strainer to obtain single cell suspension. Two million cells were plated into 96 well plates for staining of T cell panel or myeloid cell panel antibodies.
Following this, the samples were blocked with a 1:50 dilution of mouse Fc block (Miltenyi Biotec) for 30 minutes on ice. The samples were spun for 5 minutes at 1500 rpm and then stained with a fluorochrome-conjugated surface antibody mix as shown in Table Ex3.5 and Ex3.6 for 60 minutes. During the blocking and staining procedures, cells were maintained at 4° C. and protected from light.
For intracellular staining of T cells, after surface staining, the plates were spun again for 5 minutes at 1500 rpm, and then the cells were fixed and permeabilized overnight using a fix/perm kit (eBioscience). The cells were washed with a permeabilization buffer and then stained with the intracellular antibodies for 1 hour at 4° C. in the dark. The plates were washed twice in permeabilization buffer and suspended in 200 μl PBS. Data acquisition was performed using the LSRFortessa™ (BD Biosciences).
Analysis was performed after each run using FLOWJO v10.0.7 software from Treestar. […]

Each structure is given as a SMILES string.

Turning to `COc1ncc(-c2nc3c(n2C(C)C)[C@H](c2ccc(Cl)cc2)N(c2cc(Cl)cn(C)c2=O)C3=O)c(OC)n1` [HDM201, (S)-5-(5-Chloro-1-methyl-2-oxo-1,2-dihydro-pyridin-3-yl)-6-(4-chloro-phenyl)-2-(2,4-dimethoxy-pyrimidin-5-yl)-1-isopropyl-5,6-dihydro-1H-pyrrolo[3,4-d]imidazol-4-one], the “% CD103+CD11+ DCs” value is listed as “increased”, the “% PD1+CD45+ cells” value is “increased”, the CD8/Treg ratio entry was “increased” and the “PDL1 expression (MFI) in CD45− cells” value was “induced”. The “newly primed % Tbet+EOMES−CD8+/CD45+ T cells” value is “increased”. Further, under “Days 5 and 12”, the “% CD11C+CD45+ cells in tumors” value was “increased” and the “CD8 T cells in tumors” value is reported as “increased”.
